# Data published in patent US12318399B2 (priority 2022, dated 2025).
# Columns and labels:
# [1] = system: endometrial cancer organoids; experiment: Patient-derived endometrial cancer organoid cell viability (CellTiter-Glo); format: cell-based, human; conditions: for Flavonoids screening on endometrial cancer cell organoids, Average: viability normalized to vehicle = 100; for cell viability compared to the IC50 value: 75 μM in combination with BSHE at an IC50, FIG. 17A; for cell viability: FIG. 17B; for efficacy in combination with FSHE: combined with IC50 FSHE, FIG. 18; for Endometrial Cancer Average: vehicle = 100
# Method: (§1) Development of patient derived organoids: The patient derived organoids were created as follows: the patient's tissue sample was collected after surgery and bathed in Hank's Balanced Salt Solution (HBSS) (Hyclone, SH30031.02) with 1% Pencillin/Streptomycin (P/S) (Life Technologies, 15070-063) on ice. Then the sample was washed three times with Dulbecco's phosphate-buffered saline (DPBS) and 1% P/S on a shaker (70 rpm) for 15 minutes each. The tissue was then transferred into a presterilized cell-culture hood to mince it finely with a sterile blade. All minced parts were then digested in an enzyme named Accumax (Innovative Cell Technologies Inc., AM105-500) for 2.5 hours at room temperature. After 2.5-hour incubation, the whole digested tissue mince was transferred in another enzyme, TrypLE express, (Gibco, 12604-021) for another 45 minutes in a 37° C. water bath. During this time the solution was continuously agitated in every 5 minutes interval. After 45 minutes of incubation, the solutions were passed through 70 μm filter on a 50 mL falcon tube. The filter was removed, and the flowthrough with the cells was collected in 5% FBS AD+++ medium (comprising 1% TS, 2% B27, 1% N2, 25% WRN, hegf 50 ng/ml, hfgf 10-100 ng/ml, Nicotinamide 1 mM, N-acetyl cysteine 1.25 mM, Primocin 0.2%, Estrogen 2 nm, A8301 0.5 μM, and Y27632). This cell suspension was centrifuged at 1000 rpm for 5 minutes at room temperature to get the cell pellet for counting. Upon checking under hemocytometer cell number was calculated and processed for organoid culture. After checking under a microscope if we found RBC contamination in the final cell suspension, then we used Red Blood Cell Lysis Buffer (Roche Diagnostics, 11814389001) to get rid of the excess RBC. Human patient cells from endometrial cancer were grown and maintained in a humidified chamber at 37° C. with 5% CO2.
# (§2) To culture patient-derived organoids, 2-3×10^3 cells were plated in a prewarmed (37° C.) 96-well plate in […] of Matrigel (5% FBS AD+++ medium) per well. Individual patient cell organoid was cultured separately in different plates. Individual patient cells were handled separately to reduce the chance of cross-contamination. After mixing cells with Matrigel, […] droplets were placed in wells and put in a 37° C. incubator with 5% CO2 for 30 minutes. Upon solidification of the Matrigel droplet with cells inside, the plate was placed inside a sterile hood and immersed the Matrigel droplet in 200 μL of organoid growth media. Cells were allowed to grow into mature organoids for 14 days. […] All treatments were done in triplicate, including vehicle-only controls (Dimethyl sulfoxide in culture medium at the highest concentration used for drug treatments).
# (§3) Note: IC50 is the 50% inhibitory concentration which is conventionally used to determine drug potency with cell-based cytotoxicity tests. Similarly, all of the antioxidants were tested under the same protocol.
# (§4) To assess the cell viability in organoids after treatments, CellTiter-Glo® Luminescent Assay (Promega #G7572) was used. In brief, on day 14 of organoid culture, the matrigel droplet in each well with organoid inside was immersed in 100 μL of fresh growth media and 100 μL of CellTiter-Glo® reagent following the manufacturer's guideline. Blank wells containing only media and CellTiter-Glo® reagent (no cells) were also included in each plate. Then the plates were put on a shaker at 110 RPM at room temperature for […] minutes to induce cell lysis, followed by 25 minutes at room temperature to stabilize the luminescent signal. Each step after adding the CellTiter-Glo® reagent was performed in the dark. Luminescence was measured on a FLUOstar OPTIMA plate reader (BMG Lab technologies, Offenburg, Germany). Analysis was performed by normalizing treatment values to the vehicle control and plotting them as a percentage of the vehicle control.
# [2] = oral formulations; cited from earlier work
# [3] = system: endometriosis organoids; experiment: Endometriosis organoid cell viability; format: cell-based, human; set-up: key: % of vehicle control; conditions: vehicle = 100
# Method: as §2, §3
# as §4, with “control. Drug IC50 values were determined by inhibitor vs normalized response-variable slope using least squares regression in Graphpad Prism 9.” for “control.”
# [4] = system: ovarian cancer organoids; experiment: Patient-derived ovarian cancer organoid cell viability; format: cell-based, human; conditions: vehicle = 100
# Method: as §1
# For the Ascites samples, we centrifuged the ascites fluid at 1000 rpm for 10 minutes at room temperature to get the cell suspension. The cell suspension was then treated with Red Blood Cell Lysis Buffer (Roche Diagnostics, 11814389001) to remove the RBC from the final cell suspension. Once samples were created, they were ready for testing, which included treating the organoids with cannabis extract. Additional cells were cultured in the same manner as above.
# as §2, §3
# To assess the cell viability in organoids after treatments, CellTiter-Glo® Luminescent Assay (Promega #G7572) was used. In brief, on day 14 of organoid culture, the matrigel droplet in each well with organoid inside was immersed in 100 μL of fresh growth media and 100 μL of CellTiter-Glo® reagent following the manufacturer's guideline. Blank wells containing only media and CellTiter-Glo® reagent (no cells) were also included in each plate. […]
smiles,measurement,setting,value
O=c1c(O)c(-c2ccc(O)c(O)c2)oc2cc(O)cc(O)c12 [Quercetin],"Flavonoids screening on endometrial cancer cell organoids, Average","[1]; 10 μM, monotherapy",95.16
same,"Flavonoids screening on endometrial cancer cell organoids, Average","[1]; 20 μM, monotherapy",89.43
same,"Flavonoids screening on endometrial cancer cell organoids, Average","[1]; 30 μM, monotherapy",85.33
same,"Flavonoids screening on endometrial cancer cell organoids, Average","[1]; 40 μM, monotherapy",58.16
same,"Flavonoids screening on endometrial cancer cell organoids, Average","[1]; 50 μM, monotherapy",34.67
same,"Flavonoids screening on endometrial cancer cell organoids, Average","[1]; 60 μM, monotherapy",25.59
same,"Flavonoids screening on endometrial cancer cell organoids, Average","[1]; 80 μM, monotherapy",7.88
same,"Flavonoids screening on endometrial cancer cell organoids, Average","[1]; 100 μM, monotherapy",0.00
"N.N.O=C([O-])C1(C(=O)[O-])CCC1.[Pt+2] [carboplatin, reference compound]",relative improvement on increasing the chemotherapeutic drug by 5×,[1]; carboplatin alone,about 18%
same,viability,"[1]; carboplatin alone, 50 μg/mL (lowest dose)",about 50%
same,viability,"[1]; carboplatin alone, highest dose",about 32%
"C=C1CC/C=C(\C)CC[C@@H]2[C@@H]1CC2(C)C [β-caryophyllene, reference compound]",effect on cells as monotherapy,"[1]; 50 μM, monotherapy, FIG. 16",inducing cell proliferation
same,cell viability compared to the IC50 value,[1],significant reduction cell viability
O=C1c2c(O)cc(O)cc2O[C@H](c2ccc(O)c(O)c2)[C@H]1O [taxifolin],effect on cells as monotherapy,"[1]; 50 μM, monotherapy, FIG. 16",inducing cell proliferation
same,cell viability compared to the IC50 value,[1],significant reduction cell viability
O=c1cc(-c2ccccc2)oc2cc(O)cc(O)c12 [chrysin],cell viability,[1]; 10 μM combined with the IC50 of the BSHE,3.04%
same,growth,"[1]; 10 μM, monotherapy, FIG. 16",178.99%
same,"change in viability, combination vs monotherapy","[1]; 10 μM, with IC50 of BSHE",~175%
same,cell viability,[1]; 12.5 μM combined with the IC50 of the BSHE,~0%
same,growth,"[1]; 25 μM, monotherapy, FIG. 16",188.45%
same,growth,"[1]; 50 μM, monotherapy, FIG. 16",125.21%
same,viability,"[1]; 100 μM, monotherapy, FIG. 16",56.74
same,efficacy in combination with FSHE,[1],2nd most effective combination
"CCCCCc1cc(O)c2c(c1)OC(C)(C)[C@@H]1CCC(C)=C[C@@H]21 [THC, Δ-9-tetrahydrocannabinol]",onset to reach peak concentration,[2],~120 min
O=c1c(O)c(-c2ccccc2)oc2cc(O)cc(O)c12 [Galangin],"Flavonoids screening on endometrial cancer cell organoids, Average","[1]; 10 μM, monotherapy",98.74
same,"Flavonoids screening on endometrial cancer cell organoids, Average","[1]; 20 μM, monotherapy",98.58
same,"Flavonoids screening on endometrial cancer cell organoids, Average","[1]; 30 μM, monotherapy",96.96
same,"Flavonoids screening on endometrial cancer cell organoids, Average","[1]; 40 μM, monotherapy",69.20
same,"Flavonoids screening on endometrial cancer cell organoids, Average","[1]; 50 μM, monotherapy",49.62
same,"Flavonoids screening on endometrial cancer cell organoids, Average","[1]; 60 μM, monotherapy",33.55
same,"Flavonoids screening on endometrial cancer cell organoids, Average","[1]; 80 μM, monotherapy",25.66
same,"Flavonoids screening on endometrial cancer cell organoids, Average","[1]; 100 μM, monotherapy",29.73
"Cc1c(C)c2c(c(C)c1O)CC[C@@](C)(CCC[C@H](C)CCC[C@H](C)CCCC(C)C)O2 [tocopherol, reference compound]",effect on cells as monotherapy,"[1]; 50 μM, monotherapy, FIG. 16",inducing cell proliferation
same,cell viability compared to the IC50 value,[1],significant reduction cell viability
same,efficacy in combination with FSHE,[1],made the IC50 FSHE ineffective
same,impact on cell viability alone in the carrier,[1]; monotherapy in DMSO,virtually no impact on cell viability
O=c1cc(-c2ccc(O)c(O)c2)oc2cc(O)cc(O)c12 [Luteolin],"Flavonoids screening on endometrial cancer cell organoids, Average","[1]; 10 μM, monotherapy",90.54
same,"Flavonoids screening on endometrial cancer cell organoids, Average","[1]; 20 μM, monotherapy",56.75
same,"Flavonoids screening on endometrial cancer cell organoids, Average","[1]; 30 μM, monotherapy",33.96
same,"Flavonoids screening on endometrial cancer cell organoids, Average","[1]; 40 μM, monotherapy",1.39
same,"Flavonoids screening on endometrial cancer cell organoids, Average","[1]; 50 μM, monotherapy",0.00
same,"Flavonoids screening on endometrial cancer cell organoids, Average","[1]; 60 μM, monotherapy",0.00
same,"Flavonoids screening on endometrial cancer cell organoids, Average","[1]; 80 μM, monotherapy",0.00
same,"Flavonoids screening on endometrial cancer cell organoids, Average","[1]; 100 μM, monotherapy",0.00
"CC(=O)O[C@H]1C(=O)[C@@]2(C)[C@H]([C@H](OC(=O)c3ccccc3)[C@]3(O)C[C@H](OC(=O)[C@H](O)[C@@H](NC(=O)c4ccccc4)c4ccccc4)C(C)=C1C3(C)C)[C@]1(OC(C)=O)CO[C@@H]1C[C@@H]2O [paclitaxel, reference compound]",relative reduction in viability on increasing the dose by 5×,"[1]; paclitaxel alone, 4 nm/ml to 20 nm/ml",about 12%
O=c1c(O)c(-c2cc(O)c(O)c(O)c2)oc2cc(O)cc(O)c12 [myricetin],Endometriosis Average,[3]; 25 μM,92.10
same,Endometriosis Average,[3]; 50 μM,91.37
same,Endometriosis Average,[3]; 75 μM,73.66
same,Endometriosis Average,[3]; 100 μM,18.33
same,Endometriosis Average,[3]; 125 μM,2.85
same,Endometriosis Average,[3]; 150 μM,0.00
same,Endometriosis Average,[3]; 175 μM,0.00
same,Endometriosis Average,[3]; 200 μM,0.00
same,Ovarian Cancer Average,[4]; 25 μM,88.60
same,Ovarian Cancer Average,[4]; 50 μM,84.68
same,Ovarian Cancer Average,[4]; 75 μM,78.36
same,Ovarian Cancer Average,[4]; 100 μM,38.95
same,Ovarian Cancer Average,[4]; 125 μM,13.49
same,Ovarian Cancer Average,[4]; 150 μM,2.97
same,Ovarian Cancer Average,[4]; 175 μM,0.00
same,Ovarian Cancer Average,[4]; 200 μM,0.00
same,reduction from its monotherapy,"[1]; 10 μM, with IC50 of BSHE",~86%
same,Endometrial Cancer Average,"[1]; Table 4, 10 μM",85.01
same,Endometrial Cancer Average,"[1]; Table 4, 25 μM",54.50
same,Endometrial Cancer Average,"[1]; Table 4, 50 μM",15.11
same,Endometrial Cancer Average,"[1]; Table 4, 75 μM",4.98
same,Endometrial Cancer Average,"[1]; Table 4, 100 μM",0.00
same,Endometrial Cancer Average,"[1]; Table 4, 125 μM",0.00
same,Endometrial Cancer Average,"[1]; Table 4, 150 μM",0.00
same,Endometrial Cancer Average,"[1]; Table 4, 175 μM",0.00
same,Endometrial Cancer Average,"[1]; Table 4, 200 μM",0.00
same,cell viability as a monotherapy,"[1]; monotherapy, FIG. 16",significantly reduced cell viability
O=c1c(O)c(-c2ccccc2)oc2ccccc12 [3-hydroxyflavone],"Flavonoids screening on endometrial cancer cell organoids, Average","[1]; 10 μM, monotherapy",61.62
same,"Flavonoids screening on endometrial cancer cell organoids, Average","[1]; 20 μM, monotherapy",48.26
same,"Flavonoids screening on endometrial cancer cell organoids, Average","[1]; 30 μM, monotherapy",51.28
same,"Flavonoids screening on endometrial cancer cell organoids, Average","[1]; 40 μM, monotherapy",41.00
same,"Flavonoids screening on endometrial cancer cell organoids, Average","[1]; 50 μM, monotherapy",37.88
same,"Flavonoids screening on endometrial cancer cell organoids, Average","[1]; 60 μM, monotherapy",35.89
same,"Flavonoids screening on endometrial cancer cell organoids, Average","[1]; 80 μM, monotherapy",34.31
same,"Flavonoids screening on endometrial cancer cell organoids, Average","[1]; 100 μM, monotherapy",34.65
